Results published in ChEMBL document CHEMBL1268926, “An o-aminoanilide analogue of 1α,25-dihydroxyvitamin D(3) functions as a strong vitamin D receptor antagonist” (J Med Chem, 2010).
Calls of active or inactive are those of the source. The rule behind the calls is not given here.

Tests used:
Vitamin D3 receptor = biological target: T1, Vitamin D3 receptor (Homo sapiens, UniProt P11473); assay: Binding affinity to VDR-LBD by fluorescence polarization competition assay
T1 sequence (P11473 whole entry): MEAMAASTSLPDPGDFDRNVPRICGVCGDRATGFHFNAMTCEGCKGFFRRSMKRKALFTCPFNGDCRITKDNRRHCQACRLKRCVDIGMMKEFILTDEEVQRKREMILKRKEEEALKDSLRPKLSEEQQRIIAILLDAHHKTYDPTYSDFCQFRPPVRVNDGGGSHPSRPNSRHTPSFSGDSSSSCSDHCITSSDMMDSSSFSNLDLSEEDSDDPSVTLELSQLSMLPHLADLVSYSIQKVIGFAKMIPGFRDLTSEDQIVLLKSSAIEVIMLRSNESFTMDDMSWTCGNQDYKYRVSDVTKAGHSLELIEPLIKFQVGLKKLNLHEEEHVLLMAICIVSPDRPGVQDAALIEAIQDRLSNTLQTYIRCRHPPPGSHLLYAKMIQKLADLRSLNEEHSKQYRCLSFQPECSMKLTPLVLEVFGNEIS

Tubulin (Homo sapiens) = Tubulin (Homo sapiens) (UniProt P68371+Q9H4B7+P0DPH7+P68366+Q13509+Q71U36+P04350+Q3ZCM7+P07437+P68363+Q9BQE3+Q6PEY2+Q13885+Q9BVA1+Q9BUF5); assay: Inhibition of HDAC in human SCC25 cells assessed as hyperacetylation of tubulin at 1 uM by Western blotting; format: cell-based; conditions: SCC-25
[1] = biological target: Histone deacetylase (Homo sapiens) (UniProt Q13547+O15379+Q9UBN7+Q92769+Q9UQL6+Q8WUI4+Q9BY41+Q96DB2+P56524+Q9UKV0+Q969S8); assay: Inhibition of HDAC in human SCC4 cells assessed as hyperacetylation of histone H4 at 1 uM by Western blotting; conditions: SCC-4
[2] = biological target: T2, Vitamin D3 receptor (Homo sapiens) (UniProt P11473); assay: Agonist activity at VDR in human SCC25 cells assessed as induction of CYP24 expression at 1 to 10 uM by semiquantitative analysis; format: functional, cell-based; conditions: SCC-25
T2 sequence (whole entry): T1 sequence (P11473 whole entry)

[3] = biological target: T2, Vitamin D3 receptor (Homo sapiens); assay: Agonist activity at VDR in human SCC25 cells assessed as induction of CYP24 expression at 1 to 10 uM by RT-PCR analysis; format: functional, cell-based; conditions: SCC-25
[4] = biological target: T3, Protein deacetylase HDAC6 (Homo sapiens) (UniProt Q9UBN7); assay: Inhibition of human recombinant HDAC6 up to 1 mM by fluorescence assay
T3 sequence (whole entry): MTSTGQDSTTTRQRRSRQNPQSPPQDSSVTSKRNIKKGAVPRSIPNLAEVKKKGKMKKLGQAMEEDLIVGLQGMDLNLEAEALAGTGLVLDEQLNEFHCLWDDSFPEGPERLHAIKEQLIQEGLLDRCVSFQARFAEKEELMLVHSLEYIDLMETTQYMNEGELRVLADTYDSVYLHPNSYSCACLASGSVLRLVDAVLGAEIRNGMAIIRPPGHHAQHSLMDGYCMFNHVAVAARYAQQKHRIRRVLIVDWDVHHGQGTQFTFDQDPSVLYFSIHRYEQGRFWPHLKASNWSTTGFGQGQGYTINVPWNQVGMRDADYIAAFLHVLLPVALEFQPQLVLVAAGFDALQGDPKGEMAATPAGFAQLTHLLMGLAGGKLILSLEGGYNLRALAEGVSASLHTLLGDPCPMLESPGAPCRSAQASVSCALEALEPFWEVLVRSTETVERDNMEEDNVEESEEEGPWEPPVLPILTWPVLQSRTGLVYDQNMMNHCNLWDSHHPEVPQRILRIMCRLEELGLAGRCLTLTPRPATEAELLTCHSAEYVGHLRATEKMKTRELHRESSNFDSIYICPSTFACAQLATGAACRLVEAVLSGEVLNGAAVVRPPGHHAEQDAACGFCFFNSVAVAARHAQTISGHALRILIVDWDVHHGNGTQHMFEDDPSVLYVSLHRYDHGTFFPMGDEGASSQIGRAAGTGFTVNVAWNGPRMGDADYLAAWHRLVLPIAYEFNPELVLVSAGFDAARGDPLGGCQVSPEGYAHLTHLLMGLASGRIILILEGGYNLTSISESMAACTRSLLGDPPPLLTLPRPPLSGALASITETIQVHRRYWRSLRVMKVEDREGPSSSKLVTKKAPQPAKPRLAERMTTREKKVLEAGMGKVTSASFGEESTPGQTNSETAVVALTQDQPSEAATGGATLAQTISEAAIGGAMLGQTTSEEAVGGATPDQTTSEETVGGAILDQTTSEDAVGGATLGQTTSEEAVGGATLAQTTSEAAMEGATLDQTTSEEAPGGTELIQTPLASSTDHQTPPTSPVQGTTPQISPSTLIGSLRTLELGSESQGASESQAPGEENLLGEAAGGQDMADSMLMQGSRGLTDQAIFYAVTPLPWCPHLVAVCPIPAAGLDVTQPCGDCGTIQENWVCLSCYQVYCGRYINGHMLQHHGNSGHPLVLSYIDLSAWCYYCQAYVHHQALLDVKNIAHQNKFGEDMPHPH

[5] = biological target: T2, Vitamin D3 receptor (Homo sapiens); conditions: 1uM
Description: Inhibition of VDR agonist-mediated AIB1 recruitment to CYP24 promoter in ChIP assay at 1uM

| Compound | IC50 (Vitamin D3 receptor) [nM] | inhibition (Tubulin (Homo sapiens)) | inhibition [1] | Activity [2] | Activity [3] | inhibition [4] | inhibition [5] |
| --- | --- | --- | --- | --- | --- | --- | --- |
| C[C@H](CCCCC(=O)Nc1ccccc1N)[C@H]1CC[C@H]2/C(=C/C=C3C[C@@H](O)C[C@H](O)C3)CCC[C@]12C | 248 | Active | Active | – | – | – | – |
| C=C1/C(=C\C=C2/CCC[C@]3(C)[C@@H]([C@H](C)/C=C/[C@@H](O)C4(C(=O)OCCCC)CC4)CC[C@@H]23)C[C@@H](O)C[C@@H]1O | – | – | – | Active | Active | – | – |
| CC(/C=C/C(=O)Nc1ccccc1N)=C\[C@@H](C)[C@H]1CC[C@H]2/C(=C/C=C3CC(O)C[C@H](O)C3)CCC[C@]12C (single isomer, unassigned) | 107 | inactive | inactive | inactive | inactive | inactive | Active |
